In patent US6630469B2, “5-HT7 receptor antagonists” (Bristol-Myers Squibb Company, priority 2000, dated 2003):

Biological target: T1, human 5-HT7 receptor (Homo sapiens, UniProt P34969)
T1 construct: expressed in transfected cells; host or cells: CHO cells
Assay: 5-HT7 Receptor Binding Assay
Conditions: membranes of CHO cells expressing human 5-HT7 receptor; 1 nM 3H-5-carboxamidotryptamine; 25° C., 60 minutes
Method: 5-HT7 Receptor Binding Assay
Membranes are prepared for binding using the human 5-HT7 receptor expressed in CHO cells. Cells are collected and ruptured using a dounce homogenizer. The cells are spun at 18000× g for 10 minutes and the pellet is resuspended in assay buffer, frozen in liquid nitrogen and kept at −80° C. until the day of the assay.
A total of 30 ug protein is used per well. The assay is carried out in 96-deep-well plates. The assay buffer is 50 mM HEPES. The membrane preparation is incubated at 25° C. for 60 minutes with 0.1 nM to 1000 nM test compound and 1 nM ^3H-5-carboxamidotryptamine. 10 uM serotonin is used as blocking agent to determine non-specific binding. The reaction is terminated by the addition of 1 ml of ice cold 5OmM HEPES buffer and rapid filtration through a Brandel Cell Harvester using Whatman GF/B filters. The filter pads are counted in an LKB Trilux liquid scintillation counter. IC50 values are determined using non-linear regression by Exel-fit.

T1 sequence (P34969 whole entry): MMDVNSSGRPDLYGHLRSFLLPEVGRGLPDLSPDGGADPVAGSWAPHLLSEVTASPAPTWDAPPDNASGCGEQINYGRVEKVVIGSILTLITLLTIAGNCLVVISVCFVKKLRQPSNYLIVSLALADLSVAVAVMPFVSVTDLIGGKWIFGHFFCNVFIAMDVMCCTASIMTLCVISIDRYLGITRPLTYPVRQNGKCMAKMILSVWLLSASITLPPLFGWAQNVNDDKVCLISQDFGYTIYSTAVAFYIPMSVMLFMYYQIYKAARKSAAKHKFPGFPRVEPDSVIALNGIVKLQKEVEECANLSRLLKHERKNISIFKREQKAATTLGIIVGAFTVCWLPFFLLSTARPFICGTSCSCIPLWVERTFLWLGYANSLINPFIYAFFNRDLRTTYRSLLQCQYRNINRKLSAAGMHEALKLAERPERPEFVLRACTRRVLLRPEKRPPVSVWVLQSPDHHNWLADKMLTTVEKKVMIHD

Structure (SMILES)	IC50
CC[C@H](Nc1nc(N)nc(NCCOc2ccccc2)n1)c1ccccc1 [Compound 40, N^2-[2-(Phenoxy)ethyl]-N^4-[(1S)-1-phenylpropyl]-1,3,5-triazine-2,4,6-triamine]	51 to 100 nM
C[C@H](Nc1nc(N)nc(NCCOc2ccccc2)n1)c1ccccc1 [Compound 41, N^2-[2-(Phenoxy)ethyl]-N^4-[(1S)-1-phenylethyl]-1,3,5-triazine-2,4,6-triamine]	51 to 100 nM
C[C@H](Nc1nc(N)nc(NCCOc2ccccc2)n1)c1cccc2ccccc12 [Compound 42, N^2-[(1S)-1-(1-Napthyl)ethyl]-N^4-[2-(phenoxy)ethyl]-1,3,5-triazine-2,4,6-triamine]	51 to 100 nM
C[C@H](Nc1nc(N)nc(NCCOc2ccc(F)cc2)n1)c1ccc([N+](=O)[O-])cc1 [Compound 45, N^2-[2-(4-Fluorophenoxy)ethyl]-N^4-[(1S)-1-(4-nitrophenyl)ethyl]-1,3,5-triazine-2,4,6-triamine]	51 to 100 nM
C[C@H](Nc1nc(N)nc(NCCOc2ccc(F)c(F)c2)n1)c1ccc([N+](=O)[O-])cc1 [Compound 47, N^2-[2-(3,4-Difluorophenoxy)ethyl]-N^4-[(1S)-1-(4-nitrophenyl)ethyl]-1,3,5-triazine-2,4,6-triamine]	51 to 100 nM
C[C@H](Nc1nc(N)nc(NCCc2ccccc2F)n1)c1ccccc1 [Compound 48, N^2-[2-(2-Fluorophenyl)ethyl]-N^4-[(1S)-1-phenylethyl]-1,3,5-triazine-2,4,6-triamine]	51 to 100 nM
CC[C@H](Nc1nc(N)nc(NCCc2ccc(C)cc2)n1)c1ccccc1 [Compound 49, N^2-[2-(4-Methylphenyl)ethyl]-N^4-[(1S)-1-phenylpropyl]-1,3,5-triazine-2,4,6-triamine]	51 to 100 nM
C[C@H](Nc1nc(N)nc(NCCc2ccc(Cl)cc2)n1)c1ccccc1 [Compound 50, N^2-[2-(4-Chlorophenyl)ethyl]-N^4-[(1S)-1-phenylethyl]-1,3,5-triazine-2,4,6-triamine]	51 to 100 nM
CC[C@H](Nc1nc(N)nc(NCCc2ccccc2F)n1)c1ccccc1 [Compound 51, N^2-[2-(2-Fluorophenyl)ethyl]-N^4-[(1S)-1-phenylpropyl]-1,3,5-triazine-2,4,6-triamine]	51 to 100 nM
CC[C@H](Nc1nc(N)nc(NCCc2cccc(OC)c2)n1)c1ccccc1 [Compound 52, N^2-[2-(3-Methoxyphenyl)ethyl]-N^4-[(1S)-1-phenylpropyl]-1,3,5-triazine-2,4,6-triamine]	51 to 100 nM
C[C@H](Nc1nc(N)nc(NCCc2cccc(C(F)(F)F)c2)n1)c1ccccc1 [Compound 53, N^2-[(1S)-1-Phenylethyl]-N^4-{2-[3-(trifluoromethyl)phenyl]ethyl}-1,3,5-triazine-2,4,6-triamine]	51 to 100 nM
COc1cccc(CCNc2nc(N)nc(N[C@@H](C)c3ccccc3)n2)c1 [Compound 54, N^2-[2-(3-Methoxyphenyl)ethyl]-N^4-[(1S)-1-phenylethyl]-1,3,5-triazine-2,4,6-triamine]	51 to 100 nM
C[C@H](Nc1nc(N)nc(NCCc2cccc(C#N)c2)n1)c1ccccc1 [Compound 55, N^2-[2-(3-Cyanophenyl)ethyl]-N^4-[(1S)-1-phenylethyl]-1,3,5-triazine-2,4,6-triamine]	51 to 100 nM
C[C@H](Nc1nc(N)nc(NCCc2ccccc2)n1)c1cccc2ccccc12 [Compound 56, N^2-[(1S)-1-(1-Napthalenyl)ethyl]-N^4-(2-phenylethyl)-1,3,5-triazine-2,4,6-triamine]	51 to 100 nM
C[C@H](Nc1nc(N)nc(NCCC2=CCCCC2)n1)c1ccccc1 [Compound 57, N^2-[2-(1-Cyclohexenyl)ethyl]-N^4-[(1S)-1-phenylethyl]-1,3,5-triazine-2,4,6-triamine]	51 to 100 nM
C[C@H](Nc1nc(N)nc(NCCc2cccc(Cl)c2)n1)c1ccc([N+](=O)[O-])cc1 [Compound 58, N^2-[2-(3-Chlorophenyl)ethyl]-N^4-[(1S)-1-(4-nitrophenyl)ethyl]-1,3,5-triazine-2,4,6-triamine]	51 to 100 nM
C[C@H](Nc1nc(N)nc(NCCc2ccc(Cl)cc2)n1)c1ccc([N+](=O)[O-])cc1 [Compound 59, N^2-[2-(4-Chlorophenyl)ethyl]-N^4-[(1S)-1-(4-nitrophenyl)ethyl]-1,3,5-triazine-2,4,6-triamine]	51 to 100 nM
C[C@H](Nc1nc(N)nc(NCCc2ccccc2)n1)c1ccccc1 [Compound 60, N^2-[(1S)-1-Phenylethyl]-N^4-(2-phenylethyl)-1,3,5-triazine-2,4,6-triamine]	≤ 50 nM
C[C@H](Nc1nc(N)nc(NCCc2cccc(F)c2)n1)c1ccccc1 [Compound 61, N^2-[2-(3-Fluorophenyl)ethyl]-N^4-[(1S)-1-phenylethyl]-1,3,5-triazine-2,4,6-triamine]	≤ 50 nM
C[C@H](Nc1nc(N)nc(NCCc2cccc(Cl)c2)n1)c1ccccc1 [Compound 62, N^2-[2-(3-Chlorophenyl)ethyl]-N^4-[(1S)-1-phenylethyl]-1,3,5-triazine-2,4,6-triamine]	≤ 50 nM
CC[C@H](Nc1nc(N)nc(NCCc2cccc(F)c2)n1)c1ccccc1 [Compound 63, N^2-[2-(3-Fluorophenyl)ethyl]-N^4-[(1S)-1-phenylpropyl]-1,3,5-triazine-2,4,6-triamine]	≤ 50 nM
C[C@H](Nc1nc(N)nc(NCCc2ccc(F)cc2)n1)c1ccccc1 [Compound 64, N^2-[2-(4-Fluorophenyl)ethyl]-N^4-[(1S)-1-phenylethyl]-1,3,5-triazine-2,4,6-triamine]	≤ 50 nM
CC[C@H](Nc1nc(N)nc(NCCc2ccccc2)n1)c1ccccc1 [Compound 65, N^2-2-Phenylethyl-N^4-[(1S)-1-phenylpropyl]-1,3,5-triazine-2,4,6-triamine]	≤ 50 nM
C[C@H](Nc1nc(N)nc(NCCc2cccc(Br)c2)n1)c1ccccc1 [Compound 66, N^2-[2-(3-Bromophenyl)ethyl]-N^4-[(1S)-1-phenylethyl]-1,3,5-triazine-2,4,6-triamine]	≤ 50 nM
CC[C@H](Nc1nc(N)nc(NCCc2ccc(F)cc2)n1)c1ccccc1 [Compound 67, N^2-[2-(4-Fluorophenyl)ethyl]-N^4-[(1S)-1-phenylpropyl]-1,3,5-triazine-2,4,6-triamine]	≤ 50 nM
C[C@H](Nc1nc(N)nc(NCCc2cccc(F)c2)n1)c1ccc(Br)cc1 [Compound 68, N^2-[(1S)-1-(4-Bromophenyl)ethyl]-N^4-[2-(3-fluorophenyl)ethyl]-1,3,5-triazine-2,4,6-triamine]	≤ 50 nM
CC[C@H](Nc1nc(N)nc(NCCc2cccc(Cl)c2)n1)c1ccccc1 [Compound 69, N^2-[2-(3-Chlorophenyl)ethyl]-N^4-[(1S)-1-phenylpropyl]-1,3,5-triazine-2,4,6-triamine]	≤ 50 nM
C[C@H](Nc1nc(N)nc(NCCc2ccc(F)cc2)n1)c1ccc(Br)cc1 [Compound 70, N^2-[(1S)-1-(4-Bromophenyl)ethyl]-N^4-[2-(4-fluorophenyl)ethyl]-1,3,5-triazine-2,4,6-triamine]	≤ 50 nM
C[C@H](Nc1nc(N)nc(NCCc2ccc(Cl)c(Cl)c2)n1)c1ccccc1 [Compound 71, N^2-[2-(3,4-Dichlorophenyl)ethyl]-N^4-[(1S)-1-phenylethyl]-1,3,5-triazine-2,4,6-triamine]	≤ 50 nM
